Data set [1] has as its target T1, LXRα (Homo sapiens, UniProt Q13133).
T1 sequence (Q13133 209-447 limits assumed): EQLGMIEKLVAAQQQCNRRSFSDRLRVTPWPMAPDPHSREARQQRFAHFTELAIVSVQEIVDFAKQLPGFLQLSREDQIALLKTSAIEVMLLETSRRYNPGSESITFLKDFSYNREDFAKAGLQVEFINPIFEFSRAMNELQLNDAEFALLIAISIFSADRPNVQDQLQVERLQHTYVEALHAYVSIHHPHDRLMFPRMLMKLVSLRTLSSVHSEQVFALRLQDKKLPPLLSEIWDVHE
Briefly: Gal4-LXRα co-transfection promoter-reporter assay. It is filed as cell-based. The note with it: HEK293T cells, read-out: LXR agonist activity EC50. An excerpt: FIGS. 1A to 1E: Pan modulator with poly-pharmacology. […] FIG. 1D is a graph showing PPARγ target genes (aP2 and CD36) expression in OP9 cells with and without MDI (IBMX, dexamethasone, insulin) treatment. […] SR1903 is represented as orange sticks while PPARγ, RORγ, and LXRβ are depicted as blue ribbons respectively. Specific residues driving the interaction labelled and shown as sticks as well. […] FIG. 1F are graphs showing RORγ target genes (IL17A and IL17F) expression in EL4 cells.
Reporter gene assays: Twenty-four hours before transfection, HEK293T cells were plated in 96-well plates at a density of 15×10^3 cells per well. UAS:luciferase reporter and Ga14-RORa, Gal4-RORb, Gal4-RORγ, Gal4-LXRα, or Gal4 PPARγ DNA co-transfections were performed using X-tremeGENE 9 (Roche). Twenty-four hours after transfection, the cells were treated with vehicle or compound. Twenty-four hours after treatment, the luciferase activity was measured using the Dual-Glo luciferase assay system (Promega). Results were analyzed using GraphPad Prism software.
(In general: A reporter such as luciferase makes a cellular process visible.)

Data set [2] can be described thus: Food intake in lean mice and conditioned taste aversion. Type of data set: in vivo.
The target in data set [3] is T2, LXRα LBD (Homo sapiens, UniProt Q13133).
T2 construct: 10 μM of the apo protein (LXRα LBD and PPARγ LBD) was mixed with 1:10 molar excess of ligand
T2 sequence (Q13133 209-447 limits assumed): T1 sequence (Q13133 209-447 limits assumed)
Briefly: Differential HDX-MS of LXRα LBD. It is filed as binding. The settings on record: 1:10 molar excess of ligand. As to the method:
Hydrogen-deuterium exchange (HDX) detected by mass spectrometry (MS): Solution-phase amide HDX experiments were carried out with a fully automated system (CTC HTS PAL, LEAP Technologies, Carrboro, NC; housed inside a 4° C. cabinet) as described previously with the modifications described below^41.
Peptide Identification: Peptides were identified using tandem MS (MS/MS) experiments performed with a QExactive (ThermoFisher, San Jose, CA) over a 70 min gradient. Product ion spectra were acquired in a data-dependent mode and the five most abundant ions were selected for the product ion analysis per scan event. […]
Hydrogen/deuterium exchange (HDX) analysis: 10 μM of the apo protein (LXRα LBD and PPARγ LBD) was mixed with 1:10 molar excess of ligand and incubated for 2 hours at 4° C. for complex formation before subjecting them to HDX analysis. […] The intensity weighted mean m/z centroid value of each peptide envelope was calculated and subsequently converted into a percentage of deuterium incorporation. […] In the absence of a fully deuterated control, 100% deuterium incorporation was calculated theoretically, and corrections for back-exchange were made on the basis of an estimated 70% deuterium recovery and accounting for 80% final deuterium concentration in the sample (1:5 dilution in D2O HDX buffer). […]

The subject of data set [4] is EL4 cells. Briefly: RORγ target gene expression in PMA/ionomycin stimulated EL4 cells. Type of data set: cell-based. The settings on record: PMA and ionomycin, compound at 10 μM. An excerpt:
FIG. 1D is a graph showing PPARγ target genes (aP2 and CD36) expression in OP9 cells with and without MDI (IBMX, dexamethasone, insulin) treatment. […] Specific residues driving the interaction labelled and shown as sticks as well. […] Quantitative RT-PCR: Total RNA was extracted from EL4 or RAW264.7 cells using RNeasy Plus Micro Kit (Qiagen) and the RNA was reverse transcribed using the ABI reverse transcription kit (Applied Biosystems/Thermo Fisher Scientific, Waltham MA). Quantitative PCR was performed with a 7900HT Fast Real Time PCR System (Applied Biosystems) using SYBR green (Roche).

In data set [5] the test system is murine TREM1 promoter. Briefly: TREM1 promoter reporter (luciferase) assay. It is filed as cell-based, Mus musculus.
Experimental: Each LXRβ, PPARγ, and RORγ full length plasmid was co-transfected with TREM1/pGL3 using X-tremeGENE 9 into HEK293T cells. After 48 hrs, luciferase activity was measured using BriteLite plus assay system (PerkinElmer).
The nature of data set [6]: Pharmacokinetics in mice. It is filed as in vivo. The note with it: 20 mg/kg twice-a-day. As to the method:
Compound was formulated in 10/10/80 DMSO/Tween80/Water and administered to mice at either 20 mg/kg by oral gavage or at 25 mg/kg via intraperitoneal injection. Blood was drawn at the indicated times and plasma was generated. Following solid phase extraction, drug levels were quantitated using LC-MSMS.

Each structure is given as a SMILES string.

For `Cc1cc(CN2CCN(Cc3ccncc3)CC2)ccc1-c1ccc(C(O)(C(F)(F)F)C(F)(F)F)cc1` [SR1903, 1,1,1,3,3,3-hexafluoro-2-(2′-methyl-4′-((4-(pyridin-4-ylmethyl)piperazin-1-yl)methyl)-[1,1′-biphenyl]-4-yl)propan-2-ol], in data set [1], the half-maximal effective concentration (EC50) (in general, the midpoint of the concentration-response curve) turned out to be 689 nM. Further, the conditioned taste aversion entry in data set [2] (20 mg/kg) is “no effect”. The food intake result in data set [2] (lean mice) is “no effect on food intake”. Further, the “deuterium exchange of LXRα LBD” value in data set [3] is on record as “makes a direct interaction with the receptor”. Further, in data set [4], the IL17A expression entry is reported as “repressed” and the IL17F expression result is listed as “repressed”. The “effect on TREM1 promoter activity” value in data set [5] (co-expression with PPARγ and LXRβ) is given as “little effect”. Moreover, in data set [5] (co-expression with RORγ), the “attenuation of TREM1 promoter activity” value is recorded as around 50%. Also, the “plasma exposure relative to IC50” value in data set [6] is listed as “sufficient to have compound levels above its IC50”.

Source of the values: patent publication US12370193B2, “Method of inhibiting TREM-1” (UNIVERSITY OF FLORIDA RESEARCH FOUNDATION, INCORPORATED, priority 2019, dated 2025).
